Test results: paper PMC11314205, “Incorporation of an Isohexide Subunit into the Endochin-like Quinolone Scaffold” (Molecules, 2024)
≈ marks a conversion by molar mass, not a printed value. Entries after “also recorded” stand apart in the source; their conditions may differ. Like-named read-outs stand apart in the source and are kept apart here.

Key:
[1] = system: chloroquine-sensitive Plasmodium falciparum strain 3D7 (MRA-102); test: In vitro screening against chloroquine-sensitive P. falciparum 3D7; format: cell-based
Experimental: (§1) The ELQs 14–17 were tested against the chloroquine-sensitive Plasmodium falciparum strain 3D7 (MRA-102), as provided by the MR4 Unit of the American Type Culture Collection (ATCC, Manassas, VA, USA). Details of the assay have been previously published. Cytotoxicity IC50 values for 14–17 were obtained on human BJ fibroblasts as previously described. [table]

[2] = Kinetic (report: thermodynamic) solubility in pH 7.4 phosphate buffer, quantitative LC-MS; format: physicochemical; settings: phosphate buffer pH 7.4, room temperature, LC-MS (supplementary report); for solubility at 20 h: phosphate buffer, 23 °C, pH 7.4, aqueous buffer, thermodynamic from solid
Experimental: Title: Thermodynamic Solubility Study in Phosphate Buffer 7.4 Date: 02/24/2023 […]
The goal of this study is to determine the thermodynamic solubility values for compounds: JS -13, JS-14, JS-17 and JS-18 in phosphate buffer pH 7.4.
Compound ID Solubility (µM) Solubility (mg/mL)
The scope of the thermodynamic (equilibrium) solubility experiment is to investigate the solubility of the compounds in a saturated solution. For this method, phosphate buffer is added to solid compound and mixed at room temperature for […] to ensure that equilibrium is achieved. To determine concentrations to generate calibration curves and for the equilibrated compounds (in buffer) a general LC-MS method was developed. The method includes a high-resolution separation by a UPLC unit as well as a high sensitivity ion detection by a mass spectrometer equipped with an electrospray ionization probe. For calibration curves the compounds were dissolved in DMSO and diluted by ACN. The supernatant of the equilibrated samples, after a 2-step centrifugation process, were also diluted by ACN to ensure full solubilization.
(1 picture or pasted object on this page, not shown here)
The experiment was carried out as recommended by AstraZeneca’s Mechanistic Biology & Profiling, Discovery Sciences, R&D group (AstraZeneca, Gothenburg, Sweden). The method was published in ASSAY and Drug Development Technologies; Title: “A Fully Integrated Assay Panel for Early Drug Metabolism and […]
• The experiment was performed on December 3, 2022
A Shimadzu LC-40D XR HPLC system equipped with a PDA detector (Model: SPD-M40) and connected to an LCMS-2020 mass spectrometer was utilized for determining sample concentrations. For HPLC separation an XBridge C18 column (4.6x50 mm, […] particle size) from Waters Inc. was used, the column oven temperature was set at 40°C. To determine the concentration of the compounds, eluent A containing 0.1% trifluoroacetic acid (TFA) in water, eluent B containing 0.1% TFA in acetonitrile and a linear gradient (5-100% B in 3 min) were utilized. Molecular ions (MH+) were generated by combined ESI and APCI ionization methods and collected by a DUIS detector. The mass spectrometer was calibrated by standards provided by Shimadz u Scientific Instruments. Single ion monitoring (SIM) methods were used to maximize sensitivity for each compound as described in Table […]
Compound ID Primary Ion Secondary Ion Note
+ + 414.15+ is identical to MH+ generated
• To establish calibration curves, the weighted compounds were dissolved in 100 µL of dimethyl sulfoxide (DMSO) and diluted by 400 µL of acetonitrile (ACN). The stock solution was further diluted by ACN (5x, in 5 steps). For all LC-MS experiments 5 µL sample was injected. To perform equilibration studies, 500 µL phosphate buffer was added to each weighted compound. The results slurries were stirred at room temperature for 20 hr. After equilibration, the samples were transferred to […]
Eppendorf tubes and centrifuged for 30 min at 2,000 x g. 200 µL of the supernatant of each sample was transferred and centrifuged again f or 30 min at 2,000 x g. Dilution and LC-MS analyses were performed as described for the calibration curves.
ACN, DMSO and HPLC quality water were purchased from MilliporeSigma Inc.
TFA (99.9% purity) was from Chem-Impex International Inc.
• The data was archived in the MD&S Laboratory electronic notebook (ChemCart, DeltaSoft Inc.) on […]
• Data processing software used: Microsoft Office 365 – Excel.
3.1 Structures, molecular weights
Compound Chemical Exact SMILE
[C@]4([H])OC3)C=C2)=C(C)NC5=CC=C(Cl)C=C51
[H])OC3)C=C2)=C(C)NC5=CC=C(Cl)C=C51
4([H])OC3)C=C2)=C(C)NC5=CC=C(Cl)C=C51
C@]4([H])OC3)C=C2)=C(C)NC5=CC=C(Cl)C=C51
Table 2. Compound IDs, chemical formulas, exact (monoisotopic) molecular weights, SMILE notations

Tm90-C2B = system: Tm90-C2B; design: method as in PMID 24720377; settings: strain Tm90-C2B; cited from earlier work
D6 = system: D6; design: method as in PMID 24720377; settings: strain D6; cited from earlier work
[3] = system: human hepatoma-derived HepG2 cells; design: method as in PMID 24720377; settings: read-out: Cytotox. IC50; cited from earlier work
Dd2 = system: Dd2; design: method as in PMID 24720377; settings: strain Dd2; cited from earlier work
[4] = Kinetic (report: thermodynamic) solubility in pH 7.4 phosphate buffer, quantitative LC-MS; format: physicochemical; settings: 23 °C
[5] = Cytotoxicity on BJ fibroblasts, CTG reagent; format: cell-based; settings: human BJ fibroblasts, 72 h exposure at 37 °C, read-out: Cytotox. IC50
Experimental: as §1

[6] = design: method as in PMID 23515079; settings: cited from earlier work
[7] = P. falciparum strain 3D7, read-out: EC50 (antimalarial potency)
[8] = chloroquine-sensitive P. falciparum strain 3D7, read-out: EC50

Compound	EC50 [1, 7] [nM]	solubility at 20 h ([2]; read-out: Solubility) [µM]	solubility at 20 h ([2]; read-out: Solubility (mg/mL)) [mg/mL]	solubility thermodynamic at 20 h [4] [µM]	EC50 [1, 8] [nM]	IC50 at 72 h [5] [nM]	other results
COCCO[C@H]1CO[C@H]2[C@@H]1OC[C@@H]2Oc1ccc(-c2c(C)[nH]c3ccc(Cl)cc3c2=O)cc1 [Compound 17, 6-Chloro-3-(4-(((3S,3aR,6S,6aR)-6-(2-methoxyethoxy)hexahydrofuro[3,2-b]furan-3-yl)oxy)phenyl)-2-methylquinolin-4(1H)-one]	> 1000	127	0.06	–	–	–	–
CC(=O)O[C@H]1CO[C@H]2[C@@H]1OC[C@@H]2Oc1ccc(-c2c(C)[nH]c3ccc(Cl)cc3c2=O)cc1 [Compound 14, (3S,3aR,6S,6aR)-6-(4-(6-Chloro-2-methyl-4-oxo-1,4-dihydroquinolin-3-yl)phenoxy)hexahydrofuro[3,2-b]furan-3-yl Acetate]	> 1000	–	–	–	–	–	melting point: 298 to 299 °C; Solubility (M) ([2]; listed as JS-13): Unstable in buffer; also recorded: hydrolyzed under equilibrating conditions
Cc1[nH]c2ccc(Cl)cc2c(=O)c1-c1ccc(Oc2ccc(OC(F)(F)F)cc2)cc1 [C00002]	–	–	–	–	–	–	EC50 (Tm90-C2B): 2.3 nM; EC50 (D6): 3.2 nM; IC50 [3]: > 10000 nM; EC50 (Dd2): 5.6 nM
COC1COC2C(Oc3ccc(-c4c(C)[nH]c5ccc(Cl)cc5c4=O)cc3)COC12 (centres unmarked) [C00005]	–	–	–	22 (≈ 9.41 µg/mL)	> 1000	> 100000	–
COc1cc2[nH]c(C)c(-c3ccc(Oc4ccc(OC(F)(F)F)cc4)cc3)c(=O)c2cc1Cl [C00001]	–	–	–	–	–	–	EC50 (Tm90-C2B): 1.4 nM; Kinetic Solubility [6]: 16 µM; EC50 (D6): 2.2 nM; IC50 [3]: > 10000 nM; EC50 (Dd2): 2.5 nM
COCCOC1COC2C(Oc3ccc(-c4c(C)[nH]c5ccc(Cl)cc5c4=O)cc3)COC12 (centres unmarked) [C00006]	–	–	–	127 (≈ 59.9 µg/mL)	> 1000	> 100000	–
CC(=O)OC1COC2C(Oc3ccc(-c4c(C)[nH]c5ccc(Cl)cc5c4=O)cc3)COC12 (centres unmarked) [C00003]	–	–	–	–	> 1000	> 100000	–
CO[C@H]1CO[C@H]2[C@@H]1OC[C@@H]2Oc1ccc(-c2c(C)[nH]c3ccc(Cl)cc3c2=O)cc1 [Compound 16, 6-Chloro-3-(4-(((3S,3aR,6S,6aR)-6-methoxyhexahydrofuro[3,2-b]furan-3-yl)oxy)phenyl)-2-methylquinolin-4(1H)-one]	> 1000	22	0.009	–	–	–	–
Cc1[nH]c2ccc(Cl)cc2c(=O)c1-c1ccc(O[C@H]2CO[C@H]3[C@@H]2OC[C@@H]3O)cc1 [Compound 15, 6-Chloro-3-(4-(((3S,3aR,6S,6aR)-6-hydroxyhexahydrofuro[3,2-b]furan-3-yl)oxy)phenyl)-2-methylquinolin-4(1H)-one]	> 1000	95	0.039	–	–	–	–
Cc1[nH]c2ccc(Cl)cc2c(=O)c1-c1ccc(OC2COC3C(O)COC23)cc1 (centres unmarked) [C00004]	–	–	–	95 (≈ 39.3 µg/mL)	> 1000	> 100000	–
